Assay results from the supplement of paper PMC10307832.

Columns and labels:
Assay in all cases: relative viability (nuclei count vs DMSO), 5 days (fraction); higher = more cells survive
Bleomycin + Trametinib = compound: CC1=C(N=C(N=C1N)[C@H](CC(=O)N)NC[C@@H](C(=O)N)N)C(=O)N[C@@H]([C@H](C2=CN=CN2)OC3C(C(C(C(O3)CO)O)O)OC4C(C(C(C(O4)CO)O)OC(=O)N)O)C(=O)N[C@H](C)[C@H]([C@H](C)C(=O)N[C@@H]([C@@H](C)O)C(=O)NCCC5=NC(=CS5)C6=NC(=CS6)C(=O)NCCC[S+](C)C)O [Bleomycin] + CC(=O)Nc1cccc(-n2c(=O)n(C3CC3)c(=O)c3c(Nc4ccc(I)cc4F)n(C)c(=O)c(C)c32)c1 [Trametinib] (partner 0.02 µM); conditions: main component drawn
Procedure, shortened: (§1)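 Dosing by pin tool came one day after lung cancer cell lines were seeded in 1536-well plates, using either one drug or a fixed anchor-drug dose plus five library-drug doses (not always all listed) in √10 steps. After 5 days, nuclei were counted on 4× images. Relative viability is treated-well nuclei count divided by vehicle-well nuclei count, and values are medians of duplicate plates.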

Bleomycin + Luminespib = compound: CC1=C(N=C(N=C1N)[C@H](CC(=O)N)NC[C@@H](C(=O)N)N)C(=O)N[C@@H]([C@H](C2=CN=CN2)OC3C(C(C(C(O3)CO)O)O)OC4C(C(C(C(O4)CO)O)OC(=O)N)O)C(=O)N[C@H](C)[C@H]([C@H](C)C(=O)N[C@@H]([C@@H](C)O)C(=O)NCCC5=NC(=CS5)C6=NC(=CS6)C(=O)NCCC[S+](C)C)O [Bleomycin] + CCNC(=O)c1noc(-c2cc(C(C)C)c(O)cc2O)c1-c1ccc(CN2CCOCC2)cc1 [Luminespib] (partner 0.01 µM); conditions: main component drawn
Procedure, shortened: as §1

Etoposide + Pictilisib = compound: COc1cc([C@@H]2c3cc4c(cc3[C@@H](O[C@@H]3O[C@@H]5CO[C@@H](C)O[C@H]5[C@H](O)[C@H]3O)[C@H]3COC(=O)[C@H]23)OCO4)cc(OC)c1O [Etoposide] + CS(=O)(=O)N1CCN(Cc2cc3nc(-c4cccc5[nH]ncc45)nc(N4CCOCC4)c3s2)CC1 [Pictilisib] (partner 1 µM)
Procedure, shortened: as §1

Etoposide + Olaparib = compound: COc1cc([C@@H]2c3cc4c(cc3[C@@H](O[C@@H]3O[C@@H]5CO[C@@H](C)O[C@H]5[C@H](O)[C@H]3O)[C@H]3COC(=O)[C@H]23)OCO4)cc(OC)c1O [Etoposide] + O=C(c1cc(Cc2n[nH]c(=O)c3ccccc23)ccc1F)N1CCN(C(=O)C2CC2)CC1 [Olaparib] (partner 8 µM)
Procedure, shortened: as §1

| Cell Line | relative viability (Bleomycin + Trametinib; first compound 0.01 µM) | relative viability (Bleomycin + Trametinib; first compound 0.03162 µM) | relative viability (Bleomycin + Trametinib; first compound 0.1 µM) | relative viability (Bleomycin + Trametinib; first compound 0.3162 µM) | relative viability (Bleomycin + Trametinib; first compound 1 µM) | relative viability (Bleomycin + Luminespib; first compound 0.01 µM) | relative viability (Bleomycin + Luminespib; first compound 0.03162 µM) | relative viability (Bleomycin + Luminespib; first compound 0.1 µM) | relative viability (Bleomycin + Luminespib; first compound 0.3162 µM) | relative viability (Bleomycin + Luminespib; first compound 1 µM) | relative viability (Etoposide + Pictilisib; first compound 0.01 µM) | relative viability (Etoposide + Pictilisib; first compound 0.03162 µM) | relative viability (Etoposide + Pictilisib; first compound 0.1 µM) | relative viability (Etoposide + Pictilisib; first compound 0.3162 µM) | relative viability (Etoposide + Pictilisib; first compound 1 µM) | relative viability (Etoposide + Olaparib; first compound 0.01 µM) | relative viability (Etoposide + Olaparib; first compound 0.03162 µM) | relative viability (Etoposide + Olaparib; first compound 0.1 µM) | relative viability (Etoposide + Olaparib; first compound 0.3162 µM) | relative viability (Etoposide + Olaparib; first compound 1 µM) |
| --- | --- | --- | --- | --- | --- | --- | --- | --- | --- | --- | --- | --- | --- | --- | --- | --- | --- | --- | --- | --- |
| LOU-NH91 | 0.669 | 0.547 | 0.484 | 0.409 | 0.357 | 0.307 | 0.315 | 0.307 | 0.282 | 0.298 | 0.55 | 0.566 | 0.474 | 0.473 | 0.399 | 0.893 | 0.905 | 0.824 | 0.651 | 0.383 |
| LU99A | 0.485 | 0.485 | 0.438 | 0.22 | 0.173 | 0.297 | 0.283 | 0.256 | 0.172 | 0.162 | 0.362 | 0.337 | 0.237 | 0.212 | 0.159 | 0.277 | 0.28 | 0.205 | 0.139 | 0.118 |
| LXF-289 | 0.599 | 0.664 | 0.634 | 0.459 | 0.2 | 0.568 | 0.472 | 0.49 | 0.133 | 0.093 | 0.807 | 0.849 | 0.655 | 0.556 | 0.152 | 1.1 | 1.07 | 0.954 | 0.234 | 0.1 |
| NCI-H23 | 0.226 | 0.321 | 0.189 | 0.161 | 0.144 | 0.228 | 0.2 | 0.211 | 0.176 | 0.216 | 0.433 | 0.487 | 0.275 | 0.334 | 0.185 | 0.263 | 0.283 | 0.295 | 0.174 | 0.166 |
| NCI-H322M | 0.477 | 0.524 | 0.479 | 0.385 | 0.504 | 0.781 | 0.783 | 0.709 | 0.442 | 0.42 | 0.504 | 0.566 | 0.397 | 0.493 | 0.384 | 0.781 | 0.764 | 0.725 | 0.548 | 0.508 |
| NCI-H358 | 0.138 | 0.138 | 0.127 | 0.138 | 0.108 | 0.307 | 0.251 | 0.27 | 0.23 | 0.283 | 0.382 | 0.336 | 0.259 | 0.23 | 0.16 | 0.692 | 0.519 | 0.521 | 0.104 | 0.0937 |
| NCI-H441 | 0.398 | 0.408 | 0.431 | 0.298 | 0.357 | 0.31 | 0.331 | 0.251 | 0.223 | 0.216 | 0.38 | 0.425 | 0.267 | 0.149 | 0.147 | 0.516 | 0.463 | 0.393 | 0.164 | 0.155 |
| NCI-H460 | 0.107 | 0.0848 | 0.0692 | 0.0357 | 0.0155 | 0.0436 | 0.0291 | 0.0214 | 0.0162 | 0.0138 | 0.393 | 0.434 | 0.151 | 0.076 | 0.0793 | 0.395 | 0.314 | 0.247 | 0.0642 | 0.047 |
| NCI-H520 | 0.673 | 0.608 | 0.814 | 0.547 | 0.394 | 0.227 | 0.196 | 0.218 | 0.24 | 0.213 | 0.306 | 0.307 | 0.27 | 0.277 | 0.223 | 0.296 | 0.328 | 0.437 | 0.293 | 0.225 |
| NCI-H596 | 0.674 | 0.562 | 0.423 | 0.38 | 0.379 | 0.755 | 0.617 | 0.552 | 0.335 | 0.377 | 0.398 | 0.427 | – | 0.375 | 0.36 | 0.64 | 0.698 | 0.724 | 0.537 | 0.561 |
| NCI-H647 | 0.35 | 0.217 | 0.158 | 0.114 | 0.111 | 0.111 | 0.169 | 0.104 | 0.0882 | 0.0947 | 0.418 | 0.394 | 0.257 | 0.208 | 0.0798 | 0.459 | 0.516 | 0.33 | 0.0871 | 0.0592 |
| NCI-H650 | 0.909 | 0.993 | 0.8 | 0.352 | 0.18 | 0.541 | 0.729 | 0.694 | 0.2 | 0.15 | 0.865 | 0.843 | 0.415 | 0.362 | 0.221 | 0.393 | 0.317 | 0.314 | 0.184 | 0.152 |
| NCI-H661 | 0.546 | 0.484 | 0.477 | 0.392 | 0.292 | 0.78 | 0.807 | 0.564 | 0.299 | 0.284 | 0.543 | 0.453 | 0.309 | 0.32 | 0.26 | 0.776 | 0.819 | 0.686 | 0.463 | 0.471 |
| NCI-H727 | 0.376 | 0.321 | 0.392 | 0.404 | 0.406 | 0.375 | 0.376 | 0.357 | – | 0.223 | 0.327 | 0.469 | 0.215 | 0.444 | 0.35 | 0.681 | 0.632 | 0.55 | 0.689 | 0.478 |
